Test results reported in patent publication US12161722B2, “Bifunctional heterocyclic compound having BTK degradation function via ubiquitin proteasome pathway, and use thereof” (KOREA RESEARCH INSTITUTE OF CHEMICAL TECHNOLOGY, priority 2021, dated 2024).

The molecules below were run against T1, WT BTK protein (Homo sapiens, UniProt Q06187) (assay: BTK protein degradation assay (Western blotting), WT BTK). Details: concentration range accounting for 50% degradation of WT BTK protein, TMD-8 or RAMOS cells, 24 hours.
T1 construct: measured for intracellular BTK protein levels by Western blotting; endogenous in cells; host or cells: TMD-8 or RAMOS cells
Format: cell-based
How it was run: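 TMD-8 cells (1×10^6 cells/mL) treated 24 h with compound serial dilutions, then lysed in RIPA. Equal protein loads analysed by Western blot for BTK with GAPDH/β-actin as loading controls; activity binned by concentration giving 50% WT BTK degradation.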

T1 sequence (Q06187 whole entry): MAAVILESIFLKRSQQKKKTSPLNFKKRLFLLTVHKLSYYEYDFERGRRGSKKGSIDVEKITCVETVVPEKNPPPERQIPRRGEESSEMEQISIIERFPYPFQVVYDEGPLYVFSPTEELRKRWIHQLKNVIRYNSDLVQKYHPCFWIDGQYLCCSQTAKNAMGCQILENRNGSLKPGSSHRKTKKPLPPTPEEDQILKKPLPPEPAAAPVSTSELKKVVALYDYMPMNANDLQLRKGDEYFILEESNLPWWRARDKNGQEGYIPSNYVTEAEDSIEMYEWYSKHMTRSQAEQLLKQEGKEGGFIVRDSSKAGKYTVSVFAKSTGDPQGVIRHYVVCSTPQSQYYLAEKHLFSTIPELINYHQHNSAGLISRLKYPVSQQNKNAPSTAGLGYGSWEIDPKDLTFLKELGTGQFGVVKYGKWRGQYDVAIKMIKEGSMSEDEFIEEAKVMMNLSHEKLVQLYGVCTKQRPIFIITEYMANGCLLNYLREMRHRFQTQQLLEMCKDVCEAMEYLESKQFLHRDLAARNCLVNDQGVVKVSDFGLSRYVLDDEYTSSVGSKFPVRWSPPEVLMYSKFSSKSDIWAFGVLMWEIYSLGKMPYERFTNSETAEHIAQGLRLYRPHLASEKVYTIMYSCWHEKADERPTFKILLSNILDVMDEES

| SMILES | DC50 [nM] |
| --- | --- |
| Cc1cccc(C)c1Nc1nn(C)c2nc(Nc3ccc4c(c3)CN(C3CN(C[C@@H]5CCN(c6ccc7c(c6)C(=O)N(C6CCC(=O)NC6=O)C7=O)C5)C3)CC4)ncc12 (stereo partly drawn) [Compound 151, 5-((S)-3-((3-(7-((3-((2,6-Dimethylphenyl)amino)-1-methyl-1H-pyrazolo[3,4-d]pyrimidin-6-yl)amino)-3,4-dihydroisoquinolin-2 (1H)-yl)azetidin-1-yl)methyl)pyrrolidin-1-yl)-2-(2,6-dioxopiperidin-3-yl)isoindoline-1,3-dione] | 0.1 to 10 |
| COc1ccc(C(=O)N2CCC(CC(=O)N3CCc4ccc(Nc5ncc6c(Nc7c(C)cccc7C)nn(C)c6n5)cc4C3)CC2)cc1N1CCC(=O)NC1=O [Compound 112, 1-(5-(4-(2-(7-((3-((2,6-Dimethylphenyl)amino)-1-methyl-1H-pyrazolo[3,4-d]pyrimidin-6-yl)amino)-3,4-dihydroisoquinolin-2 (1H)-yl)-2-oxoethyl)piperidine-1-carbonyl)-2-methoxyphenyl)dihydropyrimidine-2,4 (1H,3H)-dione] | 1000 to 10000 |
| Cc1ccccc1Nc1nn(C)c2nc(Nc3ccc4c(c3)CN(CC3CCN(c5ccc6c(c5)C(=O)N(C5CCC(=O)NC5=O)C6=O)CC3)CC4)ncc12 (centres unmarked) [Compound 84, 2-(2,6-Dioxopiperidin-3-yl)-5-(4-((7-((1-methyl-3-(o-tolylamino)-1H-pyrazolo[3,4-d]pyrimidin-6-yl)amino)-3,4-dihydroisoquinolin-2 (1H)-yl)methyl)piperidin-1-yl)isoindoline-1,3-dione] | 0.1 to 10 |
| Cc1cccc(C)c1Nc1nn(C)c2nc(Nc3ccc4c(c3)CN(C(=O)CNc3ccc5c(c3)CN(C3CCC(=O)NC3=O)C5=O)CC4)ncc12 (centres unmarked) [Compound 81, 3-(5-((2-(7-((3-((2,6-Dimethylphenyl)amino)-1-methyl-1H-pyrazolo[3,4-d]pyrimidin-6-yl)amino)-3,4-dihydroisoquinolin-2 (1H)-yl)-2-oxoethyl)amino)-1-oxoisoindolin-2-yl)piperidin-2,6-one] | 0.1 to 10 |
| Cc1cccc(C)c1Nc1nn(C)c2nc(Nc3ccc4c(c3)CN(C(=O)COC3CCN(c5ccc6c(c5)C(=O)N(C5CCC(=O)NC5=O)C6=O)CC3)CC4)ncc12 (centres unmarked) [Compound 127, 5-(4-(2-(7-((3-((2,6-Dimethylphenyl)amino)-1-methyl-1H-pyrazolo[3,4-d]pyrimidin-6-yl)amino)-3,4-dihydroisoquinolin-2 (1H)-yl)-2-oxoethoxy)piperidin-1-yl)-2-(2,6-dioxopiperidin-3-yl)isoindoline-1,3-dione] | 0.1 to 10 |
| Cc1cccc(C)c1Nc1nn(C)c2nc(Nc3ccc(C4CCN(CC5CCN(c6ccc7c(c6)C(=O)N(C6CCC(=O)NC6=O)C7=O)CC5)CC4)nc3)ncc12 (centres unmarked) [Compound 164, 5-(4-((4-(5-((3-((2,6-Dimethylphenyl)amino)-1-methyl-1H-pyrazolo[3,4-d]pyrimidin-6-yl)amino)pyridin-2-yl)piperidin-1-yl)methyl)piperidin-1-yl)-2-(2,6-dioxopiperidin-3-yl)isoindoline-1,3-dione] | 0.1 to 10 |
| Cc1cccc(C)c1Nc1nn(C)c2nc(Nc3ccc4c(c3)CN(CC3(O)CCN(c5ccc6c(n5)CN(C5CCC(=O)NC5=O)C6=O)CC3)CC4)ncc12 (centres unmarked) [Compound 133, 3-(2-(4-((7-((3-((2,6-Dimethylphenyl)amino)-1-methyl-1H-pyrazolo[3,4-d]pyrimidin-6-yl)amino)-3,4-dihydroisoquinolin-2 (1H)-yl)methyl)-4-hydroxypiperidin-1-yl)-5-oxo-5,7-dihydro-6H-pyrrolo[3,4-b]pyridin-6-yl)piperidin-2,6-one] | 0.1 to 10 |
| Cc1cccc(C)c1Nc1nn(C)c2nc(Nc3ccc(C4CCN(C(=O)C5(F)CCN(c6ccc7c(c6)C(=O)N(C6CCC(=O)NC6=O)C7=O)CC5)CC4)cc3)ncc12 (centres unmarked) [Compound 253, 5-(4-(4-(4-((3-((2,6-dimethylphenyl)amino)-1-methyl-1H-pyrazolo[3,4-d]pyrimidin-6-yl)amino)phenyl)piperidine-1-carbonyl)-4-fluoropiperidin-1-yl)-2-(2,6-dioxopiperidin-3-yl)isoindoline-1,3-dione] | 0.1 to 10 |
| Cc1cccc(C)c1Nc1nn(C)c2nc(Nc3ccc(C4CN(C[C@@H]5CCN(c6ccc7c(c6)C(=O)N(C6CCC(=O)NC6=O)C7=O)C5)C4)cc3)ncc12 (stereo partly drawn) [Compound 177, 5-((S)-3-((3-(4-((3-((2,6-Dimethylphenyl)amino)-1-methyl-1H-pyrazolo[3,4-d]pyrimidin-6-yl)amino)phenyl)azetidin-1-yl)methyl)pyrrolidin-1-yl)-2-(2,6-dioxopiperidin-3-yl)isoindoline-1,3-dione] | 0.1 to 10 |
| Cc1cccc(C)c1Nc1nn(C)c2nc(Nc3ccc4c(c3)CN(C(=S)C3CCN(c5ccc6c(c5)C(=O)N(C5CCC(=O)NC5=O)C6=O)CC3)CC4)ncc12 (centres unmarked) [Compound 232, 5-(4-(7-((3-((2,6-dimethylphenyl)amino)-1-methyl-1H-pyrazolo[3,4-d]pyrimidin-6-yl)amino)-1,2,3,4-tetrahydroisoquinoline-2-carbonothioyl)piperidin-1-yl)-2-(2,6-dioxopiperidin-3-yl)isoindoline-1,3-dione] | 0.1 to 10 |
| Cc1cccc(C)c1Nc1nn(C(C)C)c2nc(Nc3ccc4c(c3)CN(CC3CCN(c5ccc6c(c5)C(=O)N(C5CCC(=O)NC5=O)C6=O)CC3)CC4)ncc12 (centres unmarked) [Compound 86, 5-(4-((7-((3-((2,6-Dimethylphenyl)amino)-1-isopropyl-1H-pyrazolo[3,4-d]pyrimidin-6-yl)amino)-3,4-dihydroisoquinolin-2 (1H)-yl)methyl)piperidin-1-yl)-2-(2,6-dioxopiperidin-3-yl)isoindoline-1,3-dione] | 0.1 to 10 |
| Cc1cccc(C)c1Nc1nn(C)c2nc(Nc3ccc4c(c3)CN(C(=O)[C@H]3CC[C@H](OC5CCN(c6ccc7c(c6)C(=O)N(C6CCC(=O)NC6=O)C7=O)CC5)CC3)CC4)ncc12 (some centres unmarked) [Compound 128, 5-(4-(((1r,4r)-4-(7-((3-((2,6-dimethylphenyl)amino)-1-methyl-H-pyrazolo[3,4-d]pyrimidin-6-yl)amino)-1,2,3,4-tetrahydroisoquinoline-2-carbonyl)cyclohexyl)oxy)piperidin-1-yl)-2-(2,6-dioxopiperidin-3-yl)isoindoline-1,3-dione] | 0.1 to 10 |
| Cc1cccc(C)c1Nc1nn(C)c2nc(Nc3ccc(N4CCN(C[C@@H]5CCCN(c6ccc7c(c6)C(=O)N(C6CCC(=O)NC6=O)C7=O)C5)CC4)nc3)ncc12 (stereo partly drawn) [Compound 161, 5-((S)-3-((4-(5-((3-((2,6-Dimethylphenyl)amino)-1-methyl-1H-pyrazolo[3,4-d]pyrimidin-6-yl)amino)pyridin-2-yl)piperazin-1-yl)methyl)piperidin-1-yl)-2-(2,6-dioxopiperidin-3-yl)isoindoline-1,3-dione] | 0.1 to 10 |
| Cc1cccc(C)c1Nc1nn(C)c2nc(Nc3ccc4c(c3)CN(C3CN(CC5CN(c6ccc7c(c6)C(=O)N(C6CCC(=O)NC6=O)C7=O)C5)C3)CC4)ncc12 (centres unmarked) [Compound 152, 5-(3-((3-(7-((3-((2,6-Dimethylphenyl)amino)-1-methyl-TH-pyrazolo[3,4-d]pyrimidin-6-yl)amino)-3,4-dihydroisoquinolin-2 (1H)-yl)azetidin-1-yl)methyl)azetidin-1-yl)-2-(2,6-dioxopiperidin-3-yl)isoindoline-1,3-dione] | 0.1 to 10 |
